Measured values taken from paper PMC9482650, “Quantitative fragmentomics allow affinity mapping of interactomes” (Nature Communications, 2022).
Ends that are not written are not given here. * marks the point of attachment. Biotin = O=C1N[C@H]2[C@H](CS[C@H]2CCCCC(=O)*)N1; ttds = NCCCOCCOCCOCCCNC(=O)CCC(=O)*

How the values were obtained:
HeLa cell extract preys = assay: PBM-AP-MS, PBM peptide baits; assay type: binding, human
Experimental: (§1) HEK293T and HeLa cells were authenticated and found 100% identity to ATCC cat. CRL-3216 and ATCC cat. CCL-2, respectively. Jurkat and HaCat cell lines were not authenticated (original source: ECACC and Deutsches Krebsforschungszentrum DKFZ, respectively). HeLa cells were grown in DMEM (1 g/L glucose, Gibco) medium completed with 5% FCS and 40 μg/mL gentamicin, diluted every 3rd/4th day 1/10. HaCat cells were grown in DMEM (1 g/L glucose, Gibco) medium completed with 10% FCS and 40 μg/mL gentamicin, diluted every 3rd/4th day 1/4. Jurkat cells were grown in RPMI (Gibco) medium completed with 10% FCS and 40 μg/mL gentamicin, diluted every 3rd/4th day 1/12. All cells were kept at 37 °C and 5% CO2. For proteomics analyses cells were seeded on T-175 flasks. After they reached confluency, adherent cells were washed with PBS once and collected by scraping with ice-cold lysis buffer (Hepes-KOH pH 7.5 50 mM, NaCl 150 mM, Triton X-100 1%, complete EDTA-free protease inhibitor cocktail 1×, EDTA 2 mM, TCEP 5 mM, glycerol 10%). Jurkat cells were collected by 1000 g × centrifugation, washed once with PBS, then collected by 1000 g × 5 min centrifugation again and lysed in ice-cold lysis buffer. Lysates were sonicated 4 × 20 s with 1 s long pulses on ice, then incubated rotating at 4 °C for 30 min. Lysates were centrifuged at 12,000 rpm 4 °C for 20 min and supernatant was kept for further analysis. Concentration determination was carried out by standard Bradford method (Bio-Rad Protein Assay Dye Reagent #5000006) using BSA (MP BIomedicals #160069) as control on a Bio-Rad SmartSpec 3000 spectrophotometer instrument.
(§2) For PBM-AP-MS experiments, 30 μl streptavidin resin was mixed with biotin or peptide at 50–60 μM concentration in 6–6.5 resin volume for 60 min to achieve resin saturation. For PDZ-AP-MS experiments, 30 μl streptavidin resin was mixed with biotinylated MBP or MBP-PDZ at 40-50 μM concentration in >1000× resin volume for 60 min to achieve resin saturation. After saturation, resins were washed a single time (ten resin volume, holdup buffer), and were depleted with biotin (1 mM biotin, 5–10 resin volume, 10 min). Finally, resins were washed two times. 0.5 ml 2 mg/ml cell lysate was added to the dry resin (1 mg total input) and were incubated at 4 °C for 2 h. Then, the beads were washed three times with 10 resin volume buffer containing: 50 mM TRIS pH 8.5, 150 mM NaCl, 1% TritonX-100, 10× complete EDTA-free protease inhibitor cocktail, 2 mM EDTA, 1 mM TCEP. Then, the beads were washed two times with ten resin volume buffer containing: 50 mM TRIS pH 8.5, 150 mM NaCl, 1 mM TCEP. Finally, captured protein was eluted from the resin in two steps and the eluted fractions were pooled. For each elution the beads were incubated for 30 min with three resin volume buffer containing: 20 mM TRIS pH8.5, 100 mM NaCl, 500 μM TCEP, 8 M Urea. Between each step, the beads were separated by mild centrifugation and the supernatant was removed by gentle pipetting.
(§3) The samples were precipitated with TCA 20% overnight at 4 °C and centrifuged at 14,000 rpm for 10 min at 4 °C. The protein pellets were washed twice with 1 mL cold acetone and air dried. The protein extracts were solubilized in urea 8 M, reduced with 5 mM TCEP for 30 min, and alkylated with 10 mM iodoacetamide for 30 min in the dark. Double digestion was performed at 37 °C with 500 ng endoproteinase Lys-C for 4 h, followed by fourfold dilution and an overnight digestion with 500 ng trypsin. Peptide mixtures were then desalted on C18 spin-column and dried on Speed-Vacuum.
(§4) Samples were analyzed using an Ultimate 3000 nano-RSLC (Thermo Scientific, San Jose California) coupled in line with a LTQ-Orbitrap ELITE mass spectrometer via a nano-electrospray ionization source (Thermo Scientific, San Jose California). […]

HaCat cell extract preys = assay: PBM-AP-MS, PBM peptide baits; assay type: binding, human
Experimental: as §1, §2, §3, §4

## HPV30E6 ({Biotin-ttds}-RHTTSTETAV)
HeLa cell extract preys; prey AHNAK, PBM peptide bait
  Enrichment values compared to biotin controls: 1.1
HeLa cell extract preys; prey CASK, PBM peptide bait
  Enrichment values compared to biotin controls: 20.8
HeLa cell extract preys; prey DLG1, PBM peptide bait
  Enrichment values compared to biotin controls: 6.0
HeLa cell extract preys; prey DLG5, PBM peptide bait
  Enrichment values compared to biotin controls: 0.7
HeLa cell extract preys; prey DVL2, PBM peptide bait
  Enrichment values compared to biotin controls: 0.7
HeLa cell extract preys; prey HTRA1, PBM peptide bait
  Enrichment values compared to biotin controls: 1.3
HeLa cell extract preys; prey InaDl, PBM peptide bait
  Enrichment values compared to biotin controls: 0.8
HeLa cell extract preys; prey LAP2, PBM peptide bait
  Enrichment values compared to biotin controls: 1.5
HeLa cell extract preys; prey LIN7C, PBM peptide bait
  Enrichment values compared to biotin controls: 110.0
HeLa cell extract preys; prey LMO7, PBM peptide bait
  Enrichment values compared to biotin controls: 0.8
HeLa cell extract preys; prey LNX2, PBM peptide bait
  Enrichment values compared to biotin controls: 1.0
HeLa cell extract preys; prey MPDZ, PBM peptide bait
  Enrichment values compared to biotin controls: 1.6
HeLa cell extract preys; prey MPP5, PBM peptide bait
  Enrichment values compared to biotin controls: 4.5
HeLa cell extract preys; prey MPP7, PBM peptide bait
  Enrichment values compared to biotin controls: 9.1
HeLa cell extract preys; prey PDLIM5, PBM peptide bait
  Enrichment values compared to biotin controls: 0.9
HeLa cell extract preys; prey PDLIM7, PBM peptide bait
  Enrichment values compared to biotin controls: 0.9
HeLa cell extract preys; prey PSMD9, PBM peptide bait
  Enrichment values compared to biotin controls: 0.7
HeLa cell extract preys; prey SCRIB, PBM peptide bait
  Enrichment values compared to biotin controls: 155.6
HeLa cell extract preys; prey SDCBP, PBM peptide bait
  Enrichment values compared to biotin controls: 1.3
HeLa cell extract preys; prey SIPA1L1, PBM peptide bait
  Enrichment values compared to biotin controls: 0.5
HeLa cell extract preys; prey SNTB1, PBM peptide bait
  Enrichment values compared to biotin controls: 6.5
HeLa cell extract preys; prey SNTB2, PBM peptide bait
  Enrichment values compared to biotin controls: 1.1
HeLa cell extract preys; prey SNX27, PBM peptide bait
  Enrichment values compared to biotin controls: 1.4
HeLa cell extract preys; prey SYNJ2BP, PBM peptide bait
  Enrichment values compared to biotin controls: 15.4
  Fold changes HeLa, SYNJ2BP: 15.4
HeLa cell extract preys; prey TJP1, PBM peptide bait
  Enrichment values compared to biotin controls: 0.7
HaCat cell extract preys; prey AHNAK2, PBM peptide bait
  Enrichment values compared to biotin controls: 1.2
HaCat cell extract preys; prey AHNAK, PBM peptide bait
  Enrichment values compared to biotin controls: 1.4
HaCat cell extract preys; prey DLG1, PBM peptide bait
  Enrichment values compared to biotin controls: 3.4
HaCat cell extract preys; prey GORASP2, PBM peptide bait
  Enrichment values compared to biotin controls: 0.566
HaCat cell extract preys; prey InaDl, PBM peptide bait
  Enrichment values compared to biotin controls: 0.8
HaCat cell extract preys; prey LAP2, PBM peptide bait
  Enrichment values compared to biotin controls: 1.6
HaCat cell extract preys; prey LIN7C, PBM peptide bait
  Enrichment values compared to biotin controls: 207.8
HaCat cell extract preys; prey MAGI3, PBM peptide bait
  Enrichment values compared to biotin controls: 2.1
HaCat cell extract preys; prey MPP5, PBM peptide bait
  Enrichment values compared to biotin controls: 1.9
HaCat cell extract preys; prey MPP6, PBM peptide bait
  Enrichment values compared to biotin controls: 1.8
HaCat cell extract preys; prey MPP7, PBM peptide bait
  Enrichment values compared to biotin controls: 42.8
HaCat cell extract preys; prey NHERF2, PBM peptide bait
  Enrichment values compared to biotin controls: 1.1
HaCat cell extract preys; prey NHERF, PBM peptide bait
  Enrichment values compared to biotin controls: 2.3
HaCat cell extract preys; prey PDLIM1, PBM peptide bait
  Enrichment values compared to biotin controls: 2.3
HaCat cell extract preys; prey PDLIM2, PBM peptide bait
  Enrichment values compared to biotin controls: 1.2
HaCat cell extract preys; prey PDLIM4, PBM peptide bait
  Enrichment values compared to biotin controls: 1.3
HaCat cell extract preys; prey PDLIM5, PBM peptide bait
  Enrichment values compared to biotin controls: 0.9
HaCat cell extract preys; prey PDLIM7, PBM peptide bait
  Enrichment values compared to biotin controls: 0.658
HaCat cell extract preys; prey PTPN3, PBM peptide bait
  Enrichment values compared to biotin controls: 1.3
HaCat cell extract preys; prey SCRIB, PBM peptide bait
  Enrichment values compared to biotin controls: 0.8
HaCat cell extract preys; prey SNTB2, PBM peptide bait
  Enrichment values compared to biotin controls: 9.0
HaCat cell extract preys; prey SNX27, PBM peptide bait
  Enrichment values compared to biotin controls: 0.9
HaCat cell extract preys; prey SYNJ2BP, PBM peptide bait
  Enrichment values compared to biotin controls: 21.9
  Fold changes HaCat, SYNJ2BP: 21.9
HaCat cell extract preys; prey TJP1, PBM peptide bait
  Enrichment values compared to biotin controls: 3.8
HaCat cell extract preys; prey TJP2, PBM peptide bait
  Enrichment values compared to biotin controls: 0.9
HaCat cell extract preys; prey TX1B3, PBM peptide bait
  Enrichment values compared to biotin controls: 0.9
